Values of other authors, collected in patent publication EP0553294B1, “THE MANUFACTURE OF COMPOSITIONS FOR THE TREATMENT OF CELL PRO[…]” (AMGEN INC., priority 1990, dated 1992).

Test system: Kaposi's Sarcoma
Details: administered alone; general statement, no test described

## Cc1cn([C@H]2C[C@H](N=[N+]=[N-])[C@@H](CO)O2)c(=O)[nH]c1=O [AZT, zidovudine]
  effectiveness on Kaposi's Sarcoma: not effective
